Where a SMILES comes first, the peptide text is derived from it. Where no end group is shown, it is not given here.
Assays:
[1] = system: CD8+ spleen cells of HLA transgenic mice (HLA-A01/Kb, F1 HLA-A02/KbxBalb/c, HLA-A11/Kb, HLA-A24/Kb); test: Immunogenicity after HPV DNA construct immunization, direct ex vivo IFNγ ELISPOT; assay type: in vivo, mouse; conditions: for ICCG6137 SFC/10^6 cells Delta / ICCG6138 SFC/10^6 cells Delta: HLA transgenic mice (HLA-A01/A02/A11/A24), CD8+ cells restimulated with WT peptide 10 μg/mL; for Delta SFC/10^6 cells: HLA-A24 epitopes, HLA-A24/Kb mice, median of mouse pools
Procedure: The immunogenicity of HPV HLA class I-restricted epitopes encoded in the DNA constructs was tested in the relevant HLA transgenic mice. […] To ensure an equal distribution of mice between different groups, a randomisation procedure based on body weight was performed. Female and male mice (age between 8 and 24 weeks) were ranked by body weight, extreme light or heavy animals were excluded. The remaining animals were grouped by sequentially assigning animals for the 2 experiments.
Mice were pre-treated with cardiotoxin (Sigma, C9759) on day −4 by bilateral intramuscular injection of 100 μl (2×50 μl) of a 10 μM cardiotoxin solution. Four days later, all mice were immunised with 100 μg HPV-DNA plasmid (diluted to 1 mg/ml in PBS) by bilateral injection of 50 μg in the m. tibialis anterior. […]
(§1) Mice were euthanized and spleen cells (SPC) were isolated 13 days after immunization. […] Spleen cells of DNA- and peptide-immunized HLA-A11/Kb mice were analyzed individually. SPC of all negative control mice were pooled per 2 mice, resulting in 3 data points for each peptide tested.
(§2) A direct ex vivo IFNγ ELISPOT assay was used as surrogate CTL readout. Basically, purified CD8+ cells were incubated with the individual HPV-specific HLA-restricted peptides (10 μg/mL) loaded on the appropriate antigen presenting cells (APC), in anti-mouse IFNγ antibody-coated ELISPOT plates. […] After 20 h incubation, IFNγ-producing cells were visualized by further developing the plates with biotinylated anti-mouse IFNγ antibody, streptavidin-HRP and AEC as substrate.
(§3) Some of the CTL epitopes included in the DNA constructs are analoged sequences of the wild type viral epitopes. For these particular epitopes, only the wild type sequences were used as in vitro stimulus for CTL readout.

[2] = system: CD8+ spleen cells of HLA transgenic mice (HLA-A01/Kb, F1 HLA-A02/KbxBalb/c, HLA-A11/Kb, HLA-A24/Kb); test: Immunogenicity after peptide pool/IFA immunization, direct ex vivo IFNγ ELISPOT; assay type: in vivo, mouse; conditions: for Peptide Pool SFC/10^6 cells Delta: HLA transgenic mice (HLA-A01/A02/A11/A24), CD8+ cells restimulated with WT peptide 10 μg/mL
Procedure: CTL binding epitopes were evaluated for their immunogenicity in different HLA transgenic mice. To this, a single immunization with CTL peptide pools together with a common HTL epitope emulsified in IFA was performed and up to 14 days later, CD8+ spleen cells were isolated and evaluated for epitope specificity using a direct ex vivo IFNγ ELISPOT assay.
Peptides were dissolved in DMSO at a concentration of 10 mg/mL. For each of the 4 DNA constructs, the corresponding HLA-restricted peptides were pooled per HLA type (5 to 7 CTL peptides/pool). A known HTL peptide ([…]) was added and the peptide pools were diluted in PBS to the required peptide concentration (i.e. 25 μg of each CTL peptide and 120 μg HTL peptide in 50 μl). After adding an equal volume of IFA (Pierce, lot DG56079), the mixture was emulsified by forcing it through a small orifice. Mice were immunized subcutaneously at the base of the tail with 50 μl peptide/IFA mixture.
As negative control for the peptide-immunized mice, 18 mice (in total) were injected with a PBS/IFA mixture.
as §1, §2, §3

[3] = molecular target: HLA A2402 (Homo sapiens, UniProt P04439, D101N/D140Y/D185E/E176V/E190D/F33S/G103R/G107R/I119L/I121M/I306V/K335N/L105A/L180Q/L300P/N151K/N90K/Q86E/Q94H/R106L/R138H/R89G/T104I/T345S/V100E/W191G/Y123F); test: HLA class I competition binding assay using soluble HLA
[4] = molecular target: HLA A3002 (Homo sapiens, UniProt P04439, D101N/D140H/D185E/E176R/F33S/G80R/H175R/K168Q/Q94H/R138E/R41S/V100E); test: as above
[5] = molecular target: HLA A3101 (Homo sapiens, UniProt P04439, A270S/D185E/E176V/E277Q/F33T/G231S/G80R/H175R/I121M/I218V/I322F/K168Q/L300P/L318F/M331R/P217A/Q94H/R138Q/T323A/T345S/T97I/V358M); test: as above
[6] = molecular target: T1, HLA A0301 (Homo sapiens, UniProt P04439); test: as above
T1 construct: endogenous in cells

[7] = molecular target: HLA A6801 (Homo sapiens, UniProt P04439, A269V/D185E/E176V/E277Q/E87N/F33Y/G231S/I121M/I166T/I218V/L180W/L300P/L318F/N151K/P208A/P217A/Q86R/R169H/T345S); test: as above
[8] = molecular target: HLA A2902 (Homo sapiens, UniProt P04439, A270S/D101N/D185E/E176V/E277Q/E87Q/F33T/G231S/H175R/I121M/I218V/I322F/K168Q/L300P/L318F/M331R/P208A/P217A/Q86L/T323A/T345S/V100A/V358M); test: as above
[9] = molecular target: HLA A2302 (Homo sapiens, UniProt P04439, D101N/D140Y/D185E/E176V/E190D/F33S/G103R/G107R/H175R/I119L/I121M/I306V/K168Q/K335N/L105A/L180W/L300P/N151K/N90K/P307H/Q86E/Q94H/R106L/R138H/R89G/T104I/T345S/V100E/W191G/Y123F); test: as above
[10] = molecular target: HLA A3301 (Homo sapiens, UniProt P04439, A270S/D185E/E176V/E277Q/E87N/F33T/G231S/H175R/I121M/I218V/I322F/K168Q/K210R/L300P/L318F/M331R/P217A/Q86R/Q94H/R138Q/T323A/T345S/T97I/V358M/Y195H); test: as above
[11] = immunization with DNA construct ICCG 6137, IFNγ ELISPOT
[12] = immunization with DNA construct ICCG 6138, IFNγ ELISPOT
[13] = immunization with pool of peptides emulsified in IFA, IFNγ ELISPOT

154 (FYSRIRELRY; Human papilloma virus) [compound 154]
ICCG6137 SFC/10^6 cells Delta [1, 11]: 45 SFC/10^6 cells | ICCG6137 SFC/10^6 cells Ratio ([1]; immunization with DNA construct ICCG 6137, HLA transgenic mice, response ratio, WT peptide 10 μg/mL, IFNγ ELISPOT): 2.0 | ICCG6138 SFC/10^6 cells Delta [1, 12]: 33 SFC/10^6 cells | ICCG6138 SFC/10^6 cells Ratio ([1]; immunization with DNA construct ICCG 6138, HLA transgenic mice, response ratio, WT peptide 10 μg/mL, IFNγ ELISPOT): 1.3 | Peptide Pool SFC/10^6 cells Delta [2, 13]: 165 SFC/10^6 cells | Peptide Pool SFC/10^6 cells Ratio ([2]; immunization with pool of peptides emulsified in IFA, HLA transgenic mice, response ratio, WT peptide 10 μg/mL, IFNγ ELISPOT): 7.3

CC[C@H](C)[C@H](NC(=O)[C@H](Cc1ccc(O)cc1)NC(=O)[C@H](Cc1ccccc1)NC(=O)[C@@H](NC(=O)[C@H](CC(N)=O)NC(=O)[C@H](Cc1ccc(O)cc1)NC(=O)CN)[C@@H](C)O)C(=O)N[C@@H](CCC(=O)O)C(=O)N[C@@H](Cc1ccccc1)C(=O)O [compound 41]
IC50 [3]: 16 nM | IC50 [4]: 1260 nM

CSCC[C@H](N)C(=O)N[C@@H](Cc1ccc(O)cc1)C(=O)N[C@H](C(=O)N[C@@H](CS)C(=O)N[C@@H](CS)C(=O)N[C@@H](Cc1c[nH]cn1)C(=O)N[C@H](C(=O)N1CCC[C@H]1C(=O)N[C@@H](CC(C)C)C(=O)O)C(C)C)C(C)C [compound 42] (H-MYVCCHVPL-OH; N-terminus and C-terminus assumed)
Delta SFC/10^6 cells ([1]; DNA construct ICCG6149): 1 SFC/10^6 cells | Delta SFC/10^6 cells ([1]; DNA construct ICCG6150): 1 SFC/10^6 cells | Delta SFC/10^6 cells ([2]; HLA-A24 epitopes, HLA-A24/Kb mice, Peptide Pool, median of mouse pools): 1 SFC/10^6 cells

CC(C)C[C@H](NC(=O)[C@H](CC(C)C)NC(=O)[C@@H](NC(=O)[C@H](CS)NC(=O)[C@H](Cc1ccccc1)NC(=O)[C@H](CS)NC(=O)[C@H](CC(C)C)NC(=O)[C@H](CC(C)C)NC(=O)[C@@H](N)Cc1ccccc1)C(C)C)C(=O)O [compound 51] (H-FLLCFCVLL-OH; N-terminus and C-terminus assumed)
ICCG6137 SFC/10^6 cells Delta [1, 11]: 8 SFC/10^6 cells | ICCG6138 SFC/10^6 cells Delta [1, 12]: 8 SFC/10^6 cells | Peptide Pool SFC/10^6 cells Delta [2, 13]: 195 SFC/10^6 cells

CC(C)C[C@H](NC(=O)[C@H](CS)NC(=O)[C@@H](NC(=O)[C@H](CO)NC(=O)[C@H](Cc1ccccc1)NC(=O)[C@H](CS)NC(=O)[C@H](CC(C)C)NC(=O)[C@H](CC(C)C)NC(=O)[C@@H](N)Cc1ccccc1)C(C)C)C(=O)O [compound 75] (H-FLLCFSVCL-OH; N-terminus and C-terminus assumed)
ICCG6137 SFC/10^6 cells Delta [1, 11]: 1 SFC/10^6 cells | ICCG6138 SFC/10^6 cells Delta [1, 12]: 1 SFC/10^6 cells | Peptide Pool SFC/10^6 cells Delta [2, 13]: 75 SFC/10^6 cells

ATLQDIVLH [compound 38]
IC50 [5]: 543 nM | IC50 [6]: 211 nM

DSVYGDTLER [compound 37]
IC50 [7]: 44 nM | IC50 [5]: 246 nM | IC50 [6]: 193 nM

FYSKVSEFRW [compound 65]
IC50 [3]: 4.5 nM | IC50 [4]: 1360 nM | IC50 [8]: 1780 nM | IC50 [9]: 8.8 nM

FYSRIRELRF [compound 88]
IC50 [3]: 3.2 nM | IC50 [4]: > 20000 nM | IC50 [9]: 1 nM

HYTNWKFIF [compound 63]
IC50 [3]: 8.5 nM | IC50 [4]: 4850 nM | IC50 [8]: 433 nM | IC50 [9]: 16 nM

KSLFGMSLMK [compound 15]
IC50 [7]: 887 nM | IC50 [5]: 230 nM | IC50 [6]: 3.9 nM

LSSALEIPY [compound 46]
IC50 [4]: 175 nM

LYGVSFSEL [compound 18]
IC50 [3]: 3.1 nM | IC50 [4]: > 20000 nM | IC50 [8]: > 20000 nM | IC50 [9]: 7.2 nM

LYNLLIRCF [compound 44]
IC50 [8]: > 20000 nM | IC50 [9]: 10 nM

NTELYNLLI [compound 70]
IC50 [4]: > 20000 nM | IC50 [8]: > 20000 nM

PYLHSRLVVF [compound 61]
IC50 [3]: 38.7 nM | IC50 [8]: 4370 nM | IC50 [9]: 2.8 nM

QVVPAYNISK [compound 35]
IC50 [6]: 308 nM

RQMNMSQWIK [compound 79]
IC50 [7]: 2560 nM | IC50 [5]: 45 nM

RTEVYQFAFR [compound 82]
IC50 [7]: 439 nM | IC50 [5]: 8 nM | IC50 [10]: 696 nM

STAAALYWYK [compound 13]
IC50 [10]: 128 nM

STVSVGTAK [compound 34]
IC50 [10]: > 20000 nM

SYFGMSFIHF [compound 39]
IC50 [3]: 17.5 nM | IC50 [4]: 1540 nM

TVSATQLVK [compound 33]
IC50 [5]: 6140 nM

VFTFPHAFPF [compound 84]
IC50 [3]: 90.4 nM | IC50 [4]: > 20000 nM | IC50 [8]: 57 nM | IC50 [9]: 15.9 nM

VFTFPNPFPF [compound 62]
IC50 [4]: > 20000 nM | IC50 [8]: 603 nM | IC50 [9]: 12 nM

VTTRYPLLR [compound 81]
IC50 [7]: 3150 nM | IC50 [6]: 158 nM | IC50 [10]: > 20000 nM

VVFIYIPLF [compound 64]
IC50 [3]: 276 nM | IC50 [4]: 268 nM | IC50 [8]: 302 nM

VYDFAFRDLCI [compound 20]
IC50 [3]: 22 nM | IC50 [4]: > 20000 nM | IC50 [8]: > 20000 nM | IC50 [9]: 8.9 nM

VYGTTLEKL [compound 66]
IC50 [3]: 26 nM | IC50 [4]: 1240 nM | IC50 [8]: > 20000 nM | IC50 [9]: 8.2 nM

VYQFAFKDL [compound 87]
IC50 [3]: 4 nM | IC50 [8]: > 20000 nM | IC50 [9]: 1.1 nM

VYVCAFAWLL [compound 86]
IC50 [3]: 8.4 nM | IC50 [4]: > 20000 nM | IC50 [8]: 2350 nM | IC50 [9]: 8.1 nM

VYVFCFLLPM [compound 43]
IC50 [3]: 178 nM | IC50 [4]: > 20000 nM | IC50 [8]: 5280 nM | IC50 [9]: 57 nM

YYITETGIW [compound 85]
IC50 [3]: 8.5 nM | IC50 [4]: > 20000 nM | IC50 [8]: > 20000 nM | IC50 [9]: 2 nM

YYMTDAGTW [compound 40]
IC50 [3]: 3.2 nM | IC50 [8]: 3410 nM

Reference: patent publication US8969542B2, “HPV polyepitope constructs and uses thereof” (priority 2007, dated 2015)
